The values that follow come from patent publication US20230119479A1, “A HISTONE DEACETYLASE INHIBITOR HAVING A NITROGEN-CONTAINING AROMATIC HETEROCYCLYL GROUP” (SHIONOGI & CO., LTD., priority 2019, published 2023).

A word on the IC50: it is the point on the concentration scale where inhibition reaches its midpoint. A word on the bioavailability: it is dose-corrected exposure relative to a reference, in per cent. High values mean much systemic uptake, low ones little systemic uptake.

Data set [1] in a line: Platelet toxicity test using human blood progenitor cells (WST). The class given is cell-based. The conditions noted are these: human bone marrow CD34+ progenitor cells, maximum concentration 25 μM.
The nature of data set [2]: BA test (oral absorption). Format: in vivo. The following applies: plasma; mice or rats; oral vs intravenous administration. On the procedure:
Materials and methods for experiments to evaluate oral absorption (1) Experimental animals: mice or rats were used. (2) Rearing condition: mice or rats were allowed free access to solid feed and sterilized tap water. (3) Setting of dosage and grouping: Oral administration and intravenous administration were performed with the predetermined dosage. Grouping was set as below. (Dosage was changed per compound)
Oral administration 2 to 60 μmol/kg or 1 to 30 mg/kg (n=2 to 3)
Intravenous administration 1 to 30 μmol/kg or 0.5 to 10 mg/kg (n=2 to 3)
(4) Preparation of administration solutions: Oral administration was performed as suspension or solution. Intravenous administration was performed after solubilization. (5) Routes of administration: Oral administration was performed mandatory into the stomach by oral sonde. Intravenous administration was performed from caudal vein by syringes with needle. (6) Evaluation items: Blood was collected serially and concentration of a compound of the present invention in plasma was measured by LC/MS/MS. (7) Statistical analysis: About transition of concentration of a compound of the present invention in plasma, the area under the plasma concentration versus time curve (AUC) was calculated by non-linear least-squares method program, and bioavailability (BA) of a compound of the present invention was calculated from dosages and AUCs of the oral administration group and the intravenous administration group. The dilution concentration or the dilution solvent were changed as necessary.

Data set [3] is described as follows: Metabolism stability test. The conditions noted are these: human liver microsomes 0.5 mg protein/mL, 30 minutes, 37° C., NADPH. Format: in vitro ADME. Here is the method: Using commercially available pooled human hepatic microsomes, a compound of the present invention is reacted for a constant time, and a remaining rate is calculated by comparing a reacted sample and an unreacted sample, thereby, a degree of metabolism in liver is assessed.
A reaction is performed (oxidative reaction) at 37° C. for 0 minute or 30 minutes in the presence of 1 mmol/L NADPH in 0.2 mL of a buffer (50 mmol/L Tris-HCl pH 7.4, 150 mmol/L potassium chloride, 10 mmol/L magnesium chloride) containing 0.5 mg protein/mL of human liver microsomes. After the reaction, 50 μL of the reaction solution is added to 100 μL of a methanol/acetonitrile=1/1 (v/v), mixed and centrifuged at 3000 rpm for 15 minutes. The compound of the present invention in the supernatant is quantified by LC/MS/MS or Solid Phase Extraction (SPE)/MS, and a remaining amount of the compound of the present invention after the reaction is calculated, letting a compound amount at 0 minute reaction time be 100%. The hydrolysis reaction is carried out in the absence of NADPH, and the glucuronidation reaction is carried out in the presence of 5 mmol/L UDP-glucuronic acid instead of NADPH, and the same operation is carried out thereafter. The dilution concentration and dilution solvent are changed as necessary.
In general terms: Liver microsomes are a subcellular fraction often used to study metabolism.

For `Cn1cc(-c2cnc(C(=O)Nc3nc(-n4cccc4)ccc3N)cn2)cn1` [Compound I-023], in data set [1], the IC50 at 48 h was above 25 µM. In data set [2], this molecule yielded a bioavailability of 43.7%. For the same molecule, in data set [3], the “remaining rate after reaction” value is 95.3%.

For `Cn1cc(-c2ccc(N)c(NC(=O)c3cnc(C4CC4)cn3)c2)cn1` [Compound I-130], the half-maximal inhibitory concentration (IC50) at 48 h in data set [1] was above 25 µM. In data set [2], this molecule showed a bioavailability of 37.2%. Besides, the “remaining rate after reaction” value in data set [3] turned out to be 92.9%.

In data set [1], `Cn1cc(-c2cnc(C(=O)Nc3cc(-c4ccc(F)nc4)ccc3N)cn2)cn1` [Compound I-080] yielded a half-maximal inhibitory concentration (IC50) at 48 h above 25 µM. Besides, in data set [2], the bioavailability was determined as 38.4%. In addition, the “remaining rate after reaction” value in data set [3] is 84.8%.

Take `Cn1cc(-c2cnc(C(=O)Nc3nc(-c4cccs4)ccc3N)cn2)cn1` [Compound I-017]: the 50% inhibitory concentration (IC50) at 48 h in data set [1] was above 25 µM. Also, the bioavailability in data set [2] was 19.6%. Moreover, in data set [3], the “remaining rate after reaction” value came to 81.8%.

Consider `N#Cc1ccc(C(=O)Nc2cc(-c3ccc(F)nc3)ccc2N)nc1` [Compound I-092], for which the 50% inhibitory concentration (IC50) at 48 h in data set [1] is above 25 µM. In addition, the bioavailability in data set [2] was 22.4%. Also, in data set [3], the “remaining rate after reaction” value came out at 103%.

The molecule `CCOc1cnc(C(=O)Nc2cc(-c3ccc(F)nc3)ccc2N)cn1` [Compound I-118] came in with a half-maximal inhibitory concentration (IC50) at 48 h in data set [1] above 25 µM. For the same molecule, in data set [2], the bioavailability came out at 22.7%.

On to `C[C@H](F)COc1cnc(C(=O)Nc2cc(-c3ccc(F)nc3)ccc2N)cn1` (racemic) [Compound I-125], for which the 50% inhibitory concentration (IC50) at 48 h in data set [1] was above 25 µM. Further, in data set [2], the bioavailability came to 32.1%. Besides, the “remaining rate after reaction” value in data set [3] is on record as 80.4%.
